Results on one molecule are retold here after ChEMBL document CHEMBL3832074, “DailyMed|setid=ad6a2b73-29d4-4ced-ba42-4c2ad1c5a1af | ENTACAPONE - entacapone tablet, film coated|Sun Pharma Global FZE”.

Common to all, as to format: ADME, organism-based
Data set [1] concerns Homo sapiens. The data set is described as follows: Pharmcokinetic parameters for Enctacpone following oral administration of Entacapone. The note with it: in vivo, dosed compound id 40, dosed compound name ENTACAPONE; for Excretion: po.
In data set [2] the test system is Homo sapiens. Nature of the data set: (§1) Pharmacokinetic parameters for Enctacpone after single oral administartion of 200 and 800 mg Entacapone tablets to volunteers. Further details: dose 200 mg, route oral. Particulars: in vivo, dosed compound id 40, dosed compound name ENTACAPONE, gender male and female, regimen Single dose, route oral, tissue Plasma.
The nature of data set [3]: as §1. The note with it: human, in vivo, 200 mg, dosed compound id 40, dosed compound name ENTACAPONE, regimen Single dose, tissue Plasma. Further details: dose 200 mg, route oral.

Usually Inhibition stands for the relative decrease from the control value, in per cent. A low value points to a response near the control. As usually defined, the Cmax is the maximum level reached in the sampled fluid or tissue. Regarding `CCN(CC)C(=O)/C(C#N)=C/c1cc(O)c(O)c([N+](=O)[O-])c1` [ENTACAPONE], in the data set with Homo sapiens [1] (route iv, tissue Plasma), the CL is listed as 850 mL/min. The Excretion in the data set with Homo sapiens [1] (tissue Feces) is on record as 90%; with Homo sapiens [1] (tissue Urine) it was 10%. For the same molecule, the Inhibition is 65% with Homo sapiens [2] (at 200 mg) and 82% in the data set with Homo sapiens [2] (at 800 mg). In data set [3], this molecule registered a Cmax of 1200 ng/mL.
